The results in this text go back to ChEMBL document CHEMBL1777705, “Naphthol derivatives as TRPV1 inhibitors for the treatment of urinary incontinence” (Bioorg Med Chem Lett, 2011).

In data set [1] the target is Transient receptor potential cation channel subfamily V member 1 (Homo sapiens, UniProt Q8NER1). As to the kind of experiment: Antagonist activity at human TRPV1 expressed in CHO cells co-expressing aequorin and CRE-luciferase reporter gene assessed as inhibition of capsaicin-induced calcium flux. Format: functional, cell-based.
Sequence of Transient receptor potential cation channel subfamily V member 1 (Homo sapiens, UniProt Q8NER1) (Q8NER1 whole entry): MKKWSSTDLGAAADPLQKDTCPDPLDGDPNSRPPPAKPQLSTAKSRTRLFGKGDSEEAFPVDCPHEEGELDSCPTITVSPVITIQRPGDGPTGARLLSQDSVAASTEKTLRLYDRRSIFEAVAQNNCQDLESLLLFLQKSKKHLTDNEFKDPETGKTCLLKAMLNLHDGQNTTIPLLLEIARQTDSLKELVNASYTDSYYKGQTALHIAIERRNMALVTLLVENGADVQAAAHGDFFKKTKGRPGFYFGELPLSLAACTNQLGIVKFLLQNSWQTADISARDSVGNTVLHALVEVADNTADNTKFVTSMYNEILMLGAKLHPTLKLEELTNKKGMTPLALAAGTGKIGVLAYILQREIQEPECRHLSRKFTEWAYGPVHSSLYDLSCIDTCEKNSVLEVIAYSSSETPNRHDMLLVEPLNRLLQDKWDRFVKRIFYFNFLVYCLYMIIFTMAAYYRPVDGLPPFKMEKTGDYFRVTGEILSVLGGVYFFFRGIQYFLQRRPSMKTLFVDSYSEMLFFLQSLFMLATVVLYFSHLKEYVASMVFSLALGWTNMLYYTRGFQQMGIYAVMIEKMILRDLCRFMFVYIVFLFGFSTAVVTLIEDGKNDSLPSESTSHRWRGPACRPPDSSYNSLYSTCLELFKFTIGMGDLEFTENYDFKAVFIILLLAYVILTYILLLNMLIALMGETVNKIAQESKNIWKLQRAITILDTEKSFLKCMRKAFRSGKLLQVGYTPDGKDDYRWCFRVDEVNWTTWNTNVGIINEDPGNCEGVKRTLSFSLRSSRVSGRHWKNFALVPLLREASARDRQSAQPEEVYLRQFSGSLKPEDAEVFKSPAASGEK
Data set [2] has as its target Transient receptor potential cation channel subfamily V member 1 (Rattus norvegicus, UniProt O35433). Nature of the data set: Antagonist activity at rat TRPV1 expressed in CHO cells co-expressing aequorin and CRE-luciferase reporter gene assessed as inhibition of capsaicin-induced calcium flux. It is filed as functional, cell-based. On the technique in general: Reporter assays use an easily measured gene product as a stand-in for the process of interest.

In data set [3] the test system is Rattus norvegicus. As to the kind of experiment: Dose normalized AUC in po dosed rat. Format: ADME, organism-based. As to conditions: in vivo.
In data set [4] the test system is Rattus norvegicus. As to the kind of experiment: Inhibition of capsaicin-induced micturition frequency in Sprague-Dawley rat overactive bladder model at 3 mg/kg, iv relative to control. It is filed as functional.
Data set [5] can be described thus: Solubility of the compound. It is filed as physicochemical.
A short description of data set [6]: Oral bioavailability in Sprague-Dawley rat. It is filed as ADME, organism-based. The settings on record: in vivo.
Data set [7] concerns Rattus norvegicus. Nature of the data set: Inhibition of cyclophosphamide-induced bladder capacity in iv dosed Sprague-Dawley rat cystitis model. Format: functional, organism-based.
Data set [8] relates to Rattus norvegicus. Nature of the data set: Inhibition of cyclophosphamide-induced voiding frequency in iv dosed Sprague-Dawley rat cystitis model. It is filed as functional, organism-based.
Data set [9] concerns Rattus norvegicus. As to the kind of experiment: Inhibition of capsaicin-induced micturition frequency in Sprague-Dawley rat overactive bladder model at 10 mg/kg, iv relative to control. Format: functional.

Converted amounts (≈) assume the structure as drawn. A value given as a limit tells only on which side of the number the result lay.

Sequence of Transient receptor potential cation channel subfamily V member 1 (Rattus norvegicus, UniProt O35433) (O35433 whole entry): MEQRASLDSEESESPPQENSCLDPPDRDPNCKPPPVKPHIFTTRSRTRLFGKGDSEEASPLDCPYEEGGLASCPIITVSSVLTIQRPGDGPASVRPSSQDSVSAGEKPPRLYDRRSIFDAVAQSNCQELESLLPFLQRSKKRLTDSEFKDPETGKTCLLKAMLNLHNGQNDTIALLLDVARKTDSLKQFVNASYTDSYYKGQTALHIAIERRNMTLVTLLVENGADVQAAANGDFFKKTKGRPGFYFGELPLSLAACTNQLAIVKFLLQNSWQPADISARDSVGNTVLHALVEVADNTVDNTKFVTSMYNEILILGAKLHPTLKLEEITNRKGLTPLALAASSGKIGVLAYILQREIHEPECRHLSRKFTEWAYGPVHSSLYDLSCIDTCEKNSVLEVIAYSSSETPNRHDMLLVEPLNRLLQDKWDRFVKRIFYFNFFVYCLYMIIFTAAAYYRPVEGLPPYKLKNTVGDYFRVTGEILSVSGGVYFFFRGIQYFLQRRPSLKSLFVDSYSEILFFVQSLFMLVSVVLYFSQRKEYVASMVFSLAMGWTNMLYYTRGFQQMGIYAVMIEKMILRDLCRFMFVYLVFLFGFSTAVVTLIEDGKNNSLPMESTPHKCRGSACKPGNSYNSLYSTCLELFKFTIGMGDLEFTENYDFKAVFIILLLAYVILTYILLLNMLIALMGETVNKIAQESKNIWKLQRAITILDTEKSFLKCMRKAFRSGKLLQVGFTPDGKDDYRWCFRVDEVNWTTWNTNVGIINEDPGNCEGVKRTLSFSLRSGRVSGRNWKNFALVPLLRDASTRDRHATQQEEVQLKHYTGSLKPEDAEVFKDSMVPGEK

As a reminder, the IC50 is the concentration that gives 50% inhibition. `O=C(Cc1cccc2ccc(O)cc12)Nc1ccc(Cl)c(C(F)(F)F)c1`: the IC50 in data set [1] came to 34 nM.
`COc1cccc(NC(=O)Nc2cccc3ccc(O)cc23)c1`: the IC50 is 8 nM in data set [1] and 8.6 nM in data set [2].
As usually defined, the AUC is concentration integrated over time. A lower AUC goes with less exposure. For orientation: inhibition in vivo means the relative decrease from the control value, in per cent. A higher inhibition in vivo goes with a strong effect. In the data set with Rattus norvegicus [3], `O=C(Nc1ccc(Cl)c(C(F)(F)F)c1)Nc1c(Cl)c(Br)cc2ccc(O)cc12` displayed an AUC of 477 ng·h/mL. Besides, the inhibition in vivo at 3 mg/kg with Rattus norvegicus [4] turned out to be 88%.
As for `O=C(NCc1cccc(O)c1)Nc1cccc(F)c1`, the IC50 in data set [1] and in data set [2] was > 1000 nM throughout.
`CC(=O)c1cccc(NC(=O)Nc2cccc3ccc(O)cc23)c1`: the IC50 in data set [1] was 28 nM; in data set [2], 39 nM.
As to `O=C(Nc1ccc(C(F)(F)F)cc1)Nc1cccc2ccc(O)cc12`, the results for the IC50 in data set [1] and in [2] were 5.4 nM and 4.9 nM, respectively.
As to `O=C(Nc1cccc(C(=O)O)c1)Nc1cccc2ccc(O)cc12`, the IC50 in data set [1] amounted to 520 nM; in data set [2], 270 nM.
In the data set on Rattus norvegicus [3], `COc1ccc2cccc(NC(=O)Nc3ccc(Cl)c(C(F)(F)F)c3)c2c1` yielded an AUC of 114 ng·h/mL.
For the compound `CCOC(=O)c1cccc(NC(=O)Nc2cccc3ccc(O)cc23)c1`, the results for the IC50 in data set [1] and in data set [2] were 1.7 nM and 1.6 nM, respectively.
As usually defined, the solubility is the concentration that dissolves in the medium under given conditions. Broadly, the bioavailability is the share of a dose that reaches the circulation, judged against a reference dose that is usually intravenous. Read a high bioavailability as good availability. Consider `O=C(Nc1ccc(Cl)c(C(F)(F)F)c1)Nc1c(Cl)c(Cl)cc2ccc(O)cc12`, for which the AUC in the data set with Rattus norvegicus [3] amounted to 84 ng·h/mL. The same compound returned a solubility in data set [5] of 0.03 µg/mL (≈ 0.0667 µM). Moreover, the bioavailability in [6] turned out to be 3%. In addition, the inhibition result in the data set on Rattus norvegicus [7] and with Rattus norvegicus [8] was “Dose-dependent effect” each time. In addition, in the data set on Rattus norvegicus [9], the inhibition in vivo at 10 mg/kg is 55%.
As for `CSc1cccc(NC(=O)Nc2cccc3ccc(O)cc23)c1`, the IC50 in data set [1] was 3.9 nM; in [2] it was 7.1 nM.
For `O=C(Nc1ccc(Cl)c(C(F)(F)F)c1)Nc1c(Cl)ccc2ccc(O)cc12`, in the data set on Rattus norvegicus [3], the exposure (AUC) turned out to be 3 ng·h/mL. The results for the IC50 in data set [1] and in data set [2] were 3.4 nM and 4.5 nM, respectively.
Regarding `O=C(Nc1ccc(Cl)cc1Cl)Nc1cccc2ccc(O)cc12`, the IC50 in data set [1] was found to be 12 nM; in [2], 16 nM.
Turning to `O=C(Nc1cccc(C(F)(F)F)c1)Nc1cccc2ccc(O)cc12`, the results for the IC50 in [1] and in data set [2] were 3.5 nM and 4.5 nM, respectively.
On to `O=C(Nc1ccccc1C(F)(F)F)Nc1cccc2ccc(O)cc12`, for which the IC50 in [1] is 87 nM; in data set [2], 64 nM.
The compound `O=C(Nc1ccc(Cl)c(C(F)(F)F)c1)Nc1c(Br)c(Br)cc2ccc(O)cc12` returned an AUC in the data set on Rattus norvegicus [3] of 596 ng·h/mL. Testing at 3 mg/kg with Rattus norvegicus [4] gave an inhibition in vivo of 11%. The compound also displayed an inhibition in vivo at 10 mg/kg in the data set on Rattus norvegicus [9] of 65%.
Consider `O=C(Nc1cccc([N+](=O)[O-])c1)Nc1cccc2ccc(O)cc12`, for which the IC50 in data set [1] came out at 7.5 nM; in [2], 14 nM.
`O=C(Cc1cccc(F)c1)Nc1cccc2ccc(O)cc12`: the IC50 in [1] is > 1000 nM.
